# Measurements taken from PubChem BioAssay (NCI).
#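 These data come from cells grown in 96-well plates and exposed to compound for 48 hours at five concentrations. At the GI50, growth is halved. The concentration for full growth arrest is given as TGI.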
# Columns and labels:
# Experiment in all cases: DTP human tumour cell line panel, 48 h
# HT29 colon = test system: HT29 colon
# HOP-62 NSCLC = test system: HOP-62 NSCLC
# UACC-257 melanoma = test system: UACC-257 melanoma
# 786-0 renal = test system: 786-0 renal
# RXF 393 renal = test system: RXF 393 renal
# NCI/ADR-RES ovarian = test system: NCI/ADR-RES ovarian
# M14 melanoma = test system: M14 melanoma
# SK-OV-3 ovarian = test system: SK-OV-3 ovarian
# NCI-H226 lung = test system: NCI-H226 lung
# NCI-H522 lung = test system: NCI-H522 lung
# OVCAR-8 ovarian = test system: OVCAR-8 ovarian
# HS 578T breast = test system: HS 578T breast
# OVCAR-4 ovarian = test system: OVCAR-4 ovarian
# SK-MEL-2 melanoma = test system: SK-MEL-2 melanoma
# IGROV1 ovarian = test system: IGROV1 ovarian
# A498 renal = test system: A498 renal
# UACC-62 melanoma = test system: UACC-62 melanoma
# SW-620 colon = test system: SW-620 colon
# CAKI-1 renal = test system: CAKI-1 renal
# MDA-MB-435 = test system: MDA-MB-435
# BT-549 breast = test system: BT-549 breast
# SF-268 CNS = test system: SF-268 CNS
# SR leukemia = test system: SR leukemia
# MALME-3M melanoma = test system: MALME-3M melanoma
# SK-MEL-28 melanoma = test system: SK-MEL-28 melanoma
# SK-MEL-5 melanoma = test system: SK-MEL-5 melanoma
# T-47D breast = test system: T-47D breast
# KM12 colon = test system: KM12 colon
# COLO 205 colon = test system: COLO 205 colon
# EKVX NSCLC = test system: EKVX NSCLC
# CCRF-CEM leukemia = test system: CCRF-CEM leukemia
# OVCAR-3 ovarian = test system: OVCAR-3 ovarian
# SF-295 CNS = test system: SF-295 CNS
# SN12C renal = test system: SN12C renal
# RPMI-8226 leukemia = test system: RPMI-8226 leukemia
# UO-31 renal = test system: UO-31 renal
# MOLT-4 leukemia = test system: MOLT-4 leukemia
# K-562 leukemia = test system: K-562 leukemia
# OVCAR-5 ovarian = test system: OVCAR-5 ovarian
# A549 NSCLC = test system: A549 NSCLC
# PC-3 prostate = test system: PC-3 prostate
# SF-539 CNS = test system: SF-539 CNS
# HCC-2998 colon = test system: HCC-2998 colon
# DU-145 prostate = test system: DU-145 prostate
# TK-10 renal = test system: TK-10 renal
# U251 CNS = test system: U251 CNS
# MCF7 breast = test system: MCF7 breast
# HCT-15 colon = test system: HCT-15 colon
# SNB-19 CNS = test system: SNB-19 CNS
# SNB-75 CNS = test system: SNB-75 CNS
# MDA-MB-231 breast = test system: MDA-MB-231 breast
# ACHN renal = test system: ACHN renal
# NCI-H460 lung = test system: NCI-H460 lung
# NCI-H23 lung = test system: NCI-H23 lung
# LOX IMVI melanoma = test system: LOX IMVI melanoma
# HCT-116 colon = test system: HCT-116 colon
# HL-60(TB) leukemia = test system: HL-60(TB) leukemia
# HOP-92 NSCLC = test system: HOP-92 NSCLC
smiles,measurement,setting,value
COc1cc2c(cc1OCc1ccccc1)N=C[C@@H]1C[C@@H](F)CN1C2=O,GI50,HT29 colon,322 nM
same,TGI,HT29 colon,> 42800 nM
same,GI50,HOP-62 NSCLC,236 nM
same,TGI,HOP-62 NSCLC,2700 nM
same,GI50,UACC-257 melanoma,569 nM
same,TGI,UACC-257 melanoma,3000 nM
same,GI50,786-0 renal,189 nM
same,TGI,786-0 renal,661 nM
same,GI50,RXF 393 renal,217 nM
same,TGI,RXF 393 renal,511 nM
same,GI50,NCI/ADR-RES ovarian,265 nM
same,TGI,NCI/ADR-RES ovarian,1090 nM
same,GI50,M14 melanoma,158 nM
same,TGI,M14 melanoma,402 nM
same,GI50,SK-OV-3 ovarian,2810 nM
same,TGI,SK-OV-3 ovarian,45800 nM
same,GI50,NCI-H226 lung,197 nM
same,TGI,NCI-H226 lung,447 nM
same,TGI,NCI-H522 lung,187 nM
same,GI50,OVCAR-8 ovarian,565 nM
same,TGI,OVCAR-8 ovarian,5890 nM
same,TGI,HS 578T breast,503 nM
same,GI50,OVCAR-4 ovarian,2310 nM
same,TGI,OVCAR-4 ovarian,27400 nM
same,GI50,SK-MEL-2 melanoma,279 nM
same,TGI,IGROV1 ovarian,411 nM
same,GI50,A498 renal,1500 nM
same,TGI,A498 renal,3480 nM
same,GI50,UACC-62 melanoma,183 nM
same,TGI,UACC-62 melanoma,369 nM
same,TGI,SW-620 colon,1210 nM
same,GI50,CAKI-1 renal,6690 nM
same,TGI,CAKI-1 renal,26100 nM
same,GI50,MDA-MB-435,857 nM
same,TGI,MDA-MB-435,2390 nM
same,TGI,BT-549 breast,785 nM
same,GI50,SF-268 CNS,184 nM
same,TGI,SF-268 CNS,1000 nM
same,GI50,SR leukemia,290 nM
same,TGI,SR leukemia,1460 nM
same,GI50,MALME-3M melanoma,1580 nM
same,TGI,MALME-3M melanoma,3130 nM
same,GI50,SK-MEL-28 melanoma,748 nM
same,TGI,SK-MEL-28 melanoma,13700 nM
same,GI50,SK-MEL-5 melanoma,156 nM
same,TGI,SK-MEL-5 melanoma,356 nM
same,GI50,T-47D breast,577 nM
same,TGI,T-47D breast,18700 nM
same,GI50,KM12 colon,1550 nM
same,TGI,KM12 colon,4050 nM
same,GI50,COLO 205 colon,583 nM
same,TGI,COLO 205 colon,9640 nM
same,GI50,EKVX NSCLC,730 nM
same,TGI,EKVX NSCLC,2290 nM
same,GI50,CCRF-CEM leukemia,355 nM
same,TGI,CCRF-CEM leukemia,1590 nM
same,GI50,OVCAR-3 ovarian,315 nM
same,TGI,OVCAR-3 ovarian,787 nM
same,GI50,SF-295 CNS,678 nM
same,TGI,SF-295 CNS,1850 nM
same,GI50,SN12C renal,273 nM
same,TGI,SN12C renal,3400 nM
same,GI50,RPMI-8226 leukemia,< 50.1 nM
same,TGI,UO-31 renal,483 nM
same,GI50,MOLT-4 leukemia,353 nM
same,TGI,MOLT-4 leukemia,> 100000 nM
same,GI50,K-562 leukemia,500 nM
same,TGI,K-562 leukemia,> 100000 nM
same,GI50,OVCAR-5 ovarian,298 nM
same,TGI,OVCAR-5 ovarian,12100 nM
same,GI50,A549 NSCLC,829 nM
same,TGI,A549 NSCLC,6980 nM
same,TGI,PC-3 prostate,1020 nM
same,GI50,SF-539 CNS,1520 nM
same,TGI,SF-539 CNS,4680 nM
same,GI50,HCC-2998 colon,496 nM
same,TGI,HCC-2998 colon,3020 nM
same,GI50,DU-145 prostate,144 nM
same,TGI,DU-145 prostate,1660 nM
same,GI50,TK-10 renal,1490 nM
same,TGI,TK-10 renal,4520 nM
same,GI50,U251 CNS,154 nM
same,TGI,U251 CNS,400 nM
same,GI50,MCF7 breast,275 nM
same,TGI,MCF7 breast,2320 nM
same,GI50,HCT-15 colon,282 nM
same,TGI,HCT-15 colon,893 nM
same,GI50,SNB-19 CNS,596 nM
same,TGI,SNB-19 CNS,18200 nM
same,GI50,SNB-75 CNS,894 nM
same,TGI,SNB-75 CNS,> 100000 nM
same,GI50,MDA-MB-231 breast,232 nM
same,TGI,MDA-MB-231 breast,553 nM
same,GI50,ACHN renal,242 nM
same,TGI,ACHN renal,669 nM
same,GI50,NCI-H460 lung,1920 nM
same,TGI,NCI-H460 lung,7130 nM
same,GI50,NCI-H23 lung,195 nM
same,TGI,NCI-H23 lung,572 nM
O=C(Nc1sccc1S(=O)(=O)c1ccc(Cl)cc1)c1ccc(Cl)cc1Cl,TGI,HT29 colon,> 100000 nM
same,TGI,HOP-62 NSCLC,> 100000 nM
same,TGI,UACC-257 melanoma,> 100000 nM
same,TGI,786-0 renal,> 100000 nM
same,TGI,RXF 393 renal,> 100000 nM
same,TGI,NCI/ADR-RES ovarian,> 100000 nM
same,TGI,M14 melanoma,> 100000 nM
same,TGI,SK-OV-3 ovarian,> 100000 nM
same,TGI,NCI-H226 lung,> 100000 nM
same,TGI,NCI-H522 lung,> 100000 nM
same,TGI,OVCAR-8 ovarian,> 100000 nM
same,TGI,HS 578T breast,> 100000 nM
same,TGI,OVCAR-4 ovarian,> 100000 nM
same,TGI,SK-MEL-2 melanoma,> 100000 nM
same,TGI,IGROV1 ovarian,> 100000 nM
same,TGI,A498 renal,> 100000 nM
same,TGI,UACC-62 melanoma,> 100000 nM
same,TGI,SW-620 colon,> 100000 nM
same,TGI,LOX IMVI melanoma,> 100000 nM
same,TGI,CAKI-1 renal,> 100000 nM
same,TGI,MDA-MB-435,> 100000 nM
same,TGI,BT-549 breast,> 100000 nM
same,TGI,SF-268 CNS,> 100000 nM
same,TGI,SR leukemia,> 100000 nM
same,TGI,MALME-3M melanoma,> 100000 nM
same,TGI,SK-MEL-28 melanoma,> 100000 nM
same,TGI,SK-MEL-5 melanoma,> 100000 nM
same,TGI,T-47D breast,> 100000 nM
same,TGI,KM12 colon,> 100000 nM
same,TGI,COLO 205 colon,> 100000 nM
same,TGI,EKVX NSCLC,> 100000 nM
same,TGI,HCT-116 colon,> 100000 nM
same,TGI,CCRF-CEM leukemia,> 100000 nM
same,TGI,OVCAR-3 ovarian,> 100000 nM
same,TGI,SF-295 CNS,> 100000 nM
same,TGI,SN12C renal,> 100000 nM
same,TGI,RPMI-8226 leukemia,> 100000 nM
same,TGI,UO-31 renal,> 100000 nM
same,TGI,MOLT-4 leukemia,> 100000 nM
same,TGI,K-562 leukemia,> 100000 nM
same,TGI,OVCAR-5 ovarian,> 100000 nM
same,TGI,HL-60(TB) leukemia,> 100000 nM
same,TGI,A549 NSCLC,> 100000 nM
same,TGI,PC-3 prostate,> 100000 nM
same,TGI,HOP-92 NSCLC,> 100000 nM
same,TGI,SF-539 CNS,> 100000 nM
same,TGI,DU-145 prostate,> 100000 nM
same,TGI,TK-10 renal,> 100000 nM
same,TGI,U251 CNS,> 100000 nM
same,TGI,MCF7 breast,> 100000 nM
same,TGI,HCT-15 colon,> 100000 nM
same,TGI,SNB-19 CNS,> 100000 nM
same,TGI,SNB-75 CNS,> 100000 nM
same,TGI,MDA-MB-231 breast,> 100000 nM
same,TGI,ACHN renal,> 100000 nM
same,TGI,NCI-H460 lung,> 100000 nM
same,TGI,NCI-H23 lung,> 100000 nM
